Results as given in ChEMBL document CHEMBL1152991, “Tetracycline resistance in Ureaplasma spp. and Mycoplasma hominis: prevalence in Bordeaux, France, from 1999 to 2002 and description of two tet(M)-positive isolates of M. hominis susceptible to tetracyclines” (2008).
Values after ≈ are worked out from the molar mass of the structure shown.

Key:
Format in all cases: functional
Metamycoplasma hominis [1] = assay: Antimicrobial activity against tetracycline-resistant Mycoplasma hominis isolate overexpressing tet(M) gene
Ureaplasma = assay: Antimicrobial activity against tetracycline-resistant Ureaplasma sp. isolate overexpressing tet(M) gene
Metamycoplasma hominis [2] = assay: Antimicrobial activity against tetracycline-susceptible Mycoplasma hominis isolate 3430 expressing tet(M) gene after 10 passages of drug treatment
Metamycoplasma hominis [3] = assay: Antimicrobial activity against tetracycline-susceptible Mycoplasma hominis isolate 3430 expressing tet(M) gene after 3 passages of drug treatment
Metamycoplasma hominis [4] = assay: Antimicrobial activity against tetracycline-susceptible Mycoplasma hominis isolate 3425 expressing tet(M) gene after 20 passages of drug treatment

SMILES	MIC (Metamycoplasma hominis [1])	MIC (Ureaplasma)	MIC (Metamycoplasma hominis [2])	MIC (Metamycoplasma hominis [3])	MIC (Metamycoplasma hominis [4])
C[C@H]1c2cccc(O)c2C(=O)C2=C(O)[C@]3(O)C(=O)C(C(N)=O)=C(O)[C@@H](N(C)C)[C@@H]3[C@@H](O)[C@@H]21.O [DOXYCYCLINE]	32 µg/mL	> 32 µg/mL	32 µg/mL	0.12 µg/mL	0.12 µg/mL
CN(C)c1ccc(O)c2c1C[C@H]1C[C@H]3[C@H](N(C)C)C(O)=C(C(N)=O)C(=O)[C@@]3(O)C(O)=C1C2=O [MINOCYCLINE]	32 µg/mL (≈ 69.9 µM)	> 32 µg/mL			
CN(C)[C@@H]1C(O)=C(C(N)=O)C(=O)[C@@]2(O)C(O)=C3C(=O)c4c(O)cccc4[C@@](C)(O)[C@H]3C[C@@H]12 [TETRACYCLINE]	32 µg/mL (≈ 72 µM)	> 32 µg/mL			
